Assays:
Type in all cases: in vivo
[1] = test system: Alopecurus myosuroides (ALOMY); assay: Biological Example 1 glasshouse screen, pre-emergence herbicidal activity; conditions: 312 h, application rate 250 g/ha, evaluated after 13 days, read-out: ALOMY percentage phytotoxicity
Protocol: (§1) Seeds of a variety of test species were sown in standard soil in pots. After cultivation for one day (pre-emergence) or after 8 days cultivation (post-emergence) under controlled conditions in a glasshouse (at 24/16°C., day/night; 14 hours light; 65% humidity), the plants were sprayed with an aqueous spray solution derived from the formulation of the “technical”(i.e. unformulated) active ingredient in acetone/water (50:50) solution containing 0.5% Tween 20 (polyoxyethylene sorbitan monolaurate, CAS Registry Number 9005-64-5). The test plants were then grown in a glasshouse under controlled conditions in a glasshouse (at 24/16°C., day/night; 14 hours light; 65% humidity) and watered twice daily. After 13 days for pre- or post-emergence, the test was evaluated visually, and an assessed percentage phytotoxicity score given for each herbicidal application on each plant/weed species (with 100%=total damage to plant; 0%=no damage to plant).
(§2) Test plants: Alopecurus myosuroides (ALOMY), Setaria faberi (SETFA), Echinochloa crus-galli (ECHCG), Solanum nigrum (SOLNI), Amaranthus retroflexus (AMARE) and Ipomoea hederacea (IPOHE). ALOMY, SETFA and ECHCG are grassy monocotyledonous weeds. SOLNI, AMARE and IPOHE are dicotyledonous (broadleaved) weeds.
(§3) Test plants: Lolium perenne (LOLPE), Alopecurus myosuroides (ALOMY), Echinochloa crus-galli (ECHCG), and Avena fatua (AVEFA). All four of these are grassy monocotyledonous weeds.

[2] = test system: Echinochloa crus-galli (ECHCG); assay: as above; conditions: 312 h, application rate 250 g/ha, evaluated after 13 days, read-out: ECHCG percentage phytotoxicity
Protocol: as §1, §2, §3

Avena fatua (AVEFA) [3] = assay: as above; conditions: 312 h, application rate 250 g/ha, evaluated after 13 days, read-out: AVEFA percentage phytotoxicity
Protocol: as §1, §3

Lolium perenne (LOLPE) [4] = assay: as above; conditions: 312 h, application rate 250 g/ha, evaluated after 13 days, read-out: LOLPE percentage phytotoxicity
Protocol: as §1, §3

[5] = test system: Alopecurus myosuroides (ALOMY); assay: Biological Example 1 glasshouse screen, post-emergence herbicidal activity; conditions: 312 h, application rate 250 g/ha, evaluated after 13 days, read-out: ALOMY percentage phytotoxicity
Protocol: as §1, §2, §3

[6] = test system: Echinochloa crus-galli (ECHCG); assay: as above; conditions: 312 h, application rate 250 g/ha, evaluated after 13 days, read-out: ECHCG percentage phytotoxicity
Protocol: as §1, §2, §3

Avena fatua (AVEFA) [7] = assay: as above; conditions: 312 h, application rate 250 g/ha, evaluated after 13 days, read-out: AVEFA percentage phytotoxicity
Protocol: as §1, §3

Lolium perenne (LOLPE) [8] = assay: as above; conditions: 312 h, application rate 250 g/ha, evaluated after 13 days, read-out: LOLPE percentage phytotoxicity
Protocol: as §1, §3

[9] = test system: Alopecurus myosuroides (ALOMY); assay: Biological Example 2 post-emergence herbicidal activity (comparative data); conditions: 312 h, read-out: ALOMY percentage phytotoxicity
Protocol: as §1
(§4) Comparative herbicidal data are given for certain exemplified compounds with 4-(prop-1-ynyl)-2,6-dimethylphenyl or 4-(chloroethynyl)-2,6-dimethylphenyl headgroups, compared to the corresponding comparative compounds with 4-ethynyl-2,6-dimethylphenyl headgroups, as follows.
(§5) Except where specified otherwise, the glasshouse screen for herbicidal activity is substantially the same as that presented in Biological Example 1 hereinabove. The weed abbreviations are as defined in Biological Example 1.

Avena fatua (AVEFA) [10] = assay: as above
Protocol: as §1, §4, §5

[11] = test system: Echinochloa crus-galli (ECHCG); assay: as above; conditions: 312 h, read-out: ECHCG percentage phytotoxicity
Protocol: as §1, §4, §5

Lolium perenne (LOLPE) [12] = assay: as above
Protocol: as §1, §4, §5

[13] = test system: Triticum aestivum, wheat (TRZAW); assay: Biological Example 3 glasshouse screen, post-emergence, phytotoxicity on wheat; conditions: 360 h, application rate 30 g/ha, 15 DAA, no safener, read-out: TRZAW percentage phytotoxicity
Protocol: (§6) Test Method: Seeds of a variety of test species are sown in standard soil in pots. After cultivation for one day (pre-emergence) or after 12 days cultivation (post-emergence) under controlled conditions in a glasshouse (warm climate species at 24/18°C., cool climate species at 20/16°C., both at day/night; 16 hours light; 65% humidity), the plants are sprayed with an aqueous spray solution derived from the formulation of the “technical”(i.e. unformulated) active ingredient dissolved in acetone plus IF50, at a 1:20 ratio of “technical”active ingredient to IF50. The IF50 contains about 10.56 weight % Emulsogen EL™(castor oil ethoxylate, CAS Registry number 61791-12-6), about 42.22 weight % N-methylpyrrolidone, and about 42.22 weight % DPG-Monoethyl ether (dipropylene glycol mono-ethyl ether). The adjuvant X-77 (a mixture of alkyl aryl polyoxyethylene glycols and free fatty acids in isopropanol, CAS Registry number 11097-66-8) is added to the aqueous spray solution to form a 0.2% v/v solution, before spraying onto the plants.
(§7) The test plants are then grown in a glasshouse under controlled conditions in a glasshouse (at 24/18°C. or 20/16°C., day/night; 16 hours light; 65% humidity) and watered twice daily. After 15 days after application of the herbicide (15 DAA) (for post-emergence), and after 20 DAA (for pre-emergence), the test is evaluated visually, and an assessed percentage phytotoxicity score is given for each herbicidal application on each plant/weed species (with 100%=total damage to plant; 0%=no damage to plant).
These give an approximate indication of the level of selectivity on wheat for these tested compounds, when a herbicide safener such as cloquintocet-mexyl is not used: […]

[14] = test system: Alopecurus myosuroides, blackgrass (ALOMY); assay: Biological Example 3 glasshouse screen, post-emergence herbicidal activity; conditions: 360 h, application rate 30 g/ha, 15 DAA, no safener, read-out: ALOMY percentage phytotoxicity
Protocol: as §6
as §7, with “plant). […]” for “plant).”

[15] = test system: Avena fatua, wild oats (AVEFA); assay: as above; conditions: 360 h, application rate 30 g/ha, 15 DAA, no safener, read-out: AVEFA percentage phytotoxicity
Protocol: as §6
as §7, with “plant). […]” for “plant).”

[16] = test system: Echinochloa crus galli, barnyardgrass (ECHCG); assay: as above; conditions: 360 h, application rate 30 g/ha, 15 DAA, no safener, read-out: ECHCG percentage phytotoxicity
Protocol: as §6
as §7, with “plant). […]” for “plant).”

[17] = test system: Lolium perenne, perennial ryegrass (LOLPE); assay: as above; conditions: 360 h, application rate 30 g/ha, 15 DAA, no safener, read-out: LOLPE percentage phytotoxicity
Protocol: as §6
as §7, with “plant). […]” for “plant).”

CC#Cc1cc(C)c(C2=C(O)CC(CC3CCOCC3)C2=O)c(C)c1 (stereo not drawn) [Compound A-4, 2-(2,6-Dimethyl-4-prop-1-ynylphenyl)-4-(tetrahydropyran-4-ylmethyl)cyclopentane-1,3-dione]
pest or weed control at 250 g/ha [1]: 100%
pest or weed control at 250 g/ha [2]: 100%
pest or weed control at 250 g/ha (Avena fatua (AVEFA) [3]): 70%
pest or weed control at 250 g/ha (Lolium perenne (LOLPE) [4]): 100%
pest or weed control at 250 g/ha [5]: 90%
pest or weed control at 250 g/ha [6]: 100%
pest or weed control at 250 g/ha (Avena fatua (AVEFA) [7]): 100%
pest or weed control at 250 g/ha (Lolium perenne (LOLPE) [8]): 100%
pest or weed control at 15.625 g/ha ([9]; 15.625 g/ha application rate): 70%
pest or weed control at 62.5 g/ha ([9]; 62.5 g/ha application rate): 90%
AVEFA percentage phytotoxicity (Avena fatua (AVEFA) [10]; 15.625 g/ha application rate): 100%
AVEFA percentage phytotoxicity (Avena fatua (AVEFA) [10]; 62.5 g/ha application rate): 100%
pest or weed control at 15.625 g/ha ([11]; 15.625 g/ha application rate): 100%
pest or weed control at 62.5 g/ha ([11]; 62.5 g/ha application rate): 100%
LOLPE percentage phytotoxicity (Lolium perenne (LOLPE) [12]; 15.625 g/ha application rate): 100%
LOLPE percentage phytotoxicity (Lolium perenne (LOLPE) [12]; 62.5 g/ha application rate): 100%
pest or weed control at 30 g/ha [13]: 80%
pest or weed control at 30 g/ha [14]: 100%
pest or weed control at 30 g/ha [15]: 80%
pest or weed control at 30 g/ha [16]: 100%
pest or weed control at 30 g/ha [17]: 100%
